Experimental data as given in patent US11702402B2, “Small molecules that block proteasome-associated ubiquitin receptor RPN13 function and uses thereof” (DANA-FARBER CANCER INSTITUTE, INC., priority 2018, dated 2023).

How the values were obtained:
normal PBMCs = assay: Viability of normal PBMCs; format: cell-based, Human; conditions: 48 hours
Description: FIGS. 5A and 5B show PBMCs from normal healthy donor treated with WL40 and WL44 at the indicated concentrations for 48 hours. […]
(§1) The IC50 of WL40 for cell lines is shown.

MM.1R cells = assay: MM.1R cell viability (WST); format: cell-based, Human; conditions: MM.1R (dexamethasone-resistant), 48 hours
Source text: as §1

20S proteasome = assay: Proteasome activity assay in lysates of treated MM.1S cells; format: cell-based, Human; conditions: cellular extracts of MM.1S cells treated 1 μM or 10 μM for 3 hours
Description: MM.1S cells, which were treated with DMSO control, bortezomib, or WL40 at indicated concentration for 3 hours; protein lysates were analyzed for different proteasome activities (CT-L, chymotrypsin-like; T-L, trypsin-like; C-L, caspase-like). FIG. 20B is a bar graph showing percent proteasome activity after normalization with DMSO control (mean±SD; n=3). Recombinant 20S proteasome was incubated with DMSO, bortezomib, or WL40 for 30 minutes, followed by assessment of the above-noted proteasome activities. FIG. 20C MM.1S cells were pretreated with exemplary proteasome inhibitor MG132 (10 μM) for 1 hour, followed by addition of WL40 (400 nM) for 8 hours. […] Total protein lysates were subjected to immunoblots for Rpn13 and α-tubulin. […] FIG. 20E ANBL6.BR cells were treated with WL40 (400 nM) or RA190 (500 nM) for 16 hours; protein lysates were subjected to immunoblot analysis using anti-Rpn13 or anti-β-actin Abs.
MM.1S cells were treated with WL40 (1 μM or 10 μM) or Bortezomib (1 μM) for 3 hours; cells were then harvested and lysed in lysis buffer, followed by removal of debris by centrifugation. Total protein (25 μg) was analyzed for proteasome activity using 20S proteasome Assay Kit (Calbiochem), as previously described.^33

RPN13 [1] = molecular target: T1, RPN13 (Homo sapiens, UniProt Q16186); assay: Rpn13 immunoblot in MM.1S-CRBN KO cells; format: cell-based; set-up: endogenous in cells; host or cells: MM.1S; MM.1S-CRBN KO; RPMI-8226; ANBL6.BR; conditions: 400 nM, 16 hours, versus DMSO
T1 sequence (Q16186 whole entry): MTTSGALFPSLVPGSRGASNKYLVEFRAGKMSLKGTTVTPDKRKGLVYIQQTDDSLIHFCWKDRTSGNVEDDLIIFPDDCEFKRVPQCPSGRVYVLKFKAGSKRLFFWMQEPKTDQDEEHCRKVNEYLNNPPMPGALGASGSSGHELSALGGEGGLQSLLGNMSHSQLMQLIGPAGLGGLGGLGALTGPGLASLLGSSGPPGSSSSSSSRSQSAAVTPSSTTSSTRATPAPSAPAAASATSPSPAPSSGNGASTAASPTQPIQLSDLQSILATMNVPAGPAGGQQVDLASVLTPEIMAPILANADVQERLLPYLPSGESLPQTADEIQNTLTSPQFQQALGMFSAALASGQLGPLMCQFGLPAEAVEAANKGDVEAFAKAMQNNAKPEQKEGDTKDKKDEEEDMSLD
Description: (§2) FIGS. 19A-19I show the exemplary design and characterization of exemplary Rpn13 degrader WL40. […] WL40 was created by linking the Rpn13 inhibitor RA190 to the IMiD thalidomide as a ligand for the CRBN E3 ligase via a PEG linker. […] FIG. 19C is a schematic cartoon for the novel AlphaScreen assay to measure the binding activity of inhibitor with RPN13 proteins. […] FIG. 19E depicts immunoblot analysis of multiple myeloma 1S (MM.1S) cells, which were treated with WL40 or RA190 at the indicated concentrations and time periods; protein lysates were subjected to the immunoblot analysis using anti-Rpn13 or anti-tubulin Abs. FIG. 19F depicts flow cytometry analysis of MM.1S cells, which were treated with DMSO control, WL40 (400 nM), or RA190 (500 nM) for 16 hours; cells were then washed and stained with Rpn13 Ab conjugated with AlexaFluor-647, followed by the flow cytometry analysis. Isotype Ab conjugated to AlexaFluor-647 was used as control for non-specific binding. Data was quantified using FACS Diva (BD Biosciences, USA) and FlowJo (FlowJo LLC, USA). […]
To confirm that CRBN presence is a prerequisite for the function of WL40 in cells, CRBN-knockout (KO) MM.1S cells^27, 38 were utilized, and the effect of WL40 on Rpn13 degradation was examined. […] GFPu-1 cells were treated with WL40, and GFP levels were then analyzed using immunoblotting. […]

RPN13 [2] = molecular target: T1, RPN13; assay: Rpn13 flow cytometry in MM.1S cells; format: cell-based; set-up: endogenous in cells; host or cells: MM.1S; MM.1S-CRBN KO; RPMI-8226; ANBL6.BR; conditions: WL40 (400 nM) 16 hours, versus DMSO or RA190 (500 nM)
Description: as §2, with “Isotype Ab conjugated to AlexaFluor-647 was used as control for non-specific binding.” left out
Next, it was examined whether WL40 decreases cellular Rpn13 levels in MM cells. MM.1S cells were treated with various concentrations of WL40 (20 0 nM, 400 nM, or 800 nM) for 4 hours, 8 hours, and 16 hours; protein lysates were then analyzed for Rpn13 levels using immunoblot analysis. […] To further corroborate the findings, MM.1S cells were treated with WL40, and then analyzed intracellular alterations in Rpn13 using flow cytometry.

[3] = tested on: MM.1S Len-resistant cells; assay: MM.1S lenalidomide-resistant cell viability; format: cell-based, Human; conditions: 72 hours
Source text: The experiment was repeated twice and JQRA concentration was increased (as indicated) at the second time.

For O=C1CCC(N2C(=O)c3cccc(NCCOCCOCCOCCC(=O)N[C@@H](Cc4ccccc4)C(=O)N4C/C(=C\c5ccc(Cl)c(Cl)c5)C(=O)/C(=C/c5ccc(Cl)c(Cl)c5)C4)c3C2=O)C(=O)N1 (stereo partly shown) [WL40], the “viability of normal PBMCs” value (normal PBMCs; at the IC50, Wst-1) was “do not significantly affect the viability”, the “viability of normal PBMCs” value (normal PBMCs; at the IC50 for MM cells, CellTiter-Glo) was “does not affect viability of normal PBMCs” and the “cytotoxicity (cell viability)” value (MM.1R cells) was “more cytotoxic than the parental Rpn13 inhibitor RA190”. The “20S proteasomal activities (chymotrypsin-like, trypsin-like, caspase-like)” value (20S proteasome) was “does not inhibit 20S proteasomal activities”, the “Rpn13 levels (immunoblot)” value (RPN13 [1]) was “no decrease in Rpn13 levels” and the “Rpn13 expression (flow cytometry)” value (RPN13 [2]) was “significant reduction in Rpn13 expression”.

For Cl.N[C@@H](Cc1ccccc1)C(=O)N1C/C(=C/c2ccc(Cl)c(Cl)c2)C(=O)/C(=C\c2ccc(Cl)c(Cl)c2)C1 [RA190, reference compound], the “cytotoxicity (percentage of viable cells)” value [3] was “more robust MM cytotoxicity”.
